Data published in ChEMBL document CHEMBL1177819, “Monastrol analogs: a synthesis of pyrazolopyridine, benzopyranopyrazolopyridine, and oxygen-bridged azolopyrimidine derivatives and their biological screening” (Bioorg Med Chem Lett, 2010).
Calls of active or inactive are those of the source. The calls are words filed in the database; no cut-off is given here.

Experiments:
[1] = target: T1, Kinesin-like protein KIF11 (Homo sapiens) (UniProt P52732); assay: Inhibition of kinasin spindle protein by ATPase assay
T1 sequence (whole entry): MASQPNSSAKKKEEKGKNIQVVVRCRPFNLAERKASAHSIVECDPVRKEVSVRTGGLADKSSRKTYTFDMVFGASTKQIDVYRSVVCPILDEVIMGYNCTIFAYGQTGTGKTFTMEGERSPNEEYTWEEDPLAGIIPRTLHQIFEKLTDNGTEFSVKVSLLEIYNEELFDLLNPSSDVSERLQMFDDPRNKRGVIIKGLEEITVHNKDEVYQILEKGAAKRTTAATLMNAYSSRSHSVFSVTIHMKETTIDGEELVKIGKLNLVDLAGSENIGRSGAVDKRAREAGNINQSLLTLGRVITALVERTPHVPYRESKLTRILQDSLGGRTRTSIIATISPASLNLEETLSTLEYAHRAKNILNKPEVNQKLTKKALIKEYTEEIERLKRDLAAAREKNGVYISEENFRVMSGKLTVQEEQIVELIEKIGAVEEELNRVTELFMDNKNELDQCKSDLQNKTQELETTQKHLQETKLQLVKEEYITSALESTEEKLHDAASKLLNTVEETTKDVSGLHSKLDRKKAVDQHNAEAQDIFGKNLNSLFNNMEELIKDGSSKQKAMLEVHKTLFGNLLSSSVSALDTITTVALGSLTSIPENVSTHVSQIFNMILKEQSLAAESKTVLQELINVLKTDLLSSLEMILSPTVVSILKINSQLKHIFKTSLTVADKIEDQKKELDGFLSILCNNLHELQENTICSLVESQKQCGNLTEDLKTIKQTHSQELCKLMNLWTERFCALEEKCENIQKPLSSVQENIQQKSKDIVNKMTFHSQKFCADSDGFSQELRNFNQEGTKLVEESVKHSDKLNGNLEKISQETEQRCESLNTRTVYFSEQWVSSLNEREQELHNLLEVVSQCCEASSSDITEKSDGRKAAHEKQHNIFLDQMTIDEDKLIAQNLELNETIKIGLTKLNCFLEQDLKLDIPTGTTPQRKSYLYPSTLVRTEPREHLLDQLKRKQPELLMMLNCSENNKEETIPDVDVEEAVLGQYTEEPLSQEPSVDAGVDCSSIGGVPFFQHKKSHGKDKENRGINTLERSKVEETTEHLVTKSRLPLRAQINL

[2] = target: T1, Kinesin-like protein KIF11 (Homo sapiens); assay: Inhibition of kinasin spindle protein in human HeLa cells assessed as inhibition of induction of mitotic arrest; type: cell-based
[3] = tested on: HeLa; assay: Toxicity in human HeLa cells at 100 uM; type: cell-based
[4] = Toxicity in african green monkey BSC1 cells at 100 uM; type: cell-based; details: chlorocebus aethiops, bsc-1, 100 µM

inhibition [1] | inhibition [2] | SMILES | Activity [3] | Activity [4]
inactive | inactive | Cc1cc2n(n1)[C@H]1C[C@@](C)(N2)Oc2ccccc21 |  | 
inactive | inactive | COC(=O)C1=C(C)Nc2n[nH]c(C)c2C1c1cccc(O)c1 (centres undefined) |  | 
inactive | inactive | C[C@@]12C[C@@H](c3ccccc3O1)N1CCSC1=N2 |  | 

The next lines start with the compound.

SMILES | inhibition [1] | inhibition [2] | Activity [3] | Activity [4]
C[C@@]12C[C@@H](c3ccccc3O1)n1nnnc1N2 | inactive | inactive |  | 
C[C@@]12C[C@@H](c3ccccc3O1)n1c(nc3ccccc31)N2 | inactive | inactive | Toxic | Toxic
CC1=C2C(=O)Oc3ccccc3C2c2c(n[nH]c2C)N1 (centres undefined) | inactive | inactive |  | 
